What was measured:
IL-6 = IL-6 production in THP-1 cells stimulated with LPSp, with or without PPARγ inhibitor GW9662 (Example 8-1); type: cell-based, human; conditions: final 100, 1,000 and 10,000 ng/mL, LPSp 100 ng/mL, GW9662- (PPARγ not inhibited), FIG. 8
Procedure: In the same manner as “(1) Preparation of test solution” in Example 3, a solution having a concentration of the purified product of 20,000 ng/mL was prepared, and the solution was serially diluted with a culture solution having the following composition, thereby obtaining a total of three test solutions having a concentration of 400 ng/mL, 4,000 ng/mL, and 40000 ng/mL. Since the three test solutions are diluted four-fold when added to the cells, the final concentrations of the purified products are 100 ng/mL, 1,000 ng/mL, and 10,000 ng/mL, respectively.
The culture medium was added to cells derived from human peripheral blood monocytes (THP-1, manufactured by DS Pharma Biomedical Co., Ltd.) to prepare solutions in which the concentrations of the cells were 4×10^5 cells/mL. The solutions were seeded in 24 well plates in 500 μL portions, i.e., 2.0×10^5 cells/500 μL/well. After seeding, 250 μL of the culture medium or 250 μL of the culture medium containing 40 μmol/L of GW9662 (manufactured by Wako Pure Chemical Industries, Ltd.) was added to the wells. The GW9662 is an inhibitor of PPARγ (Peroxisome proliferator-activated receptor γ) which is one type of nuclear receptor. After the addition, the mixture was incubated at 37° C. in a 5% CO2 for 1 hour. Thereafter, 250 μl of the test solution was added to each well, and the wells were incubated at 37° C. in a 5% CO2 for 22 hours. After culturing, the culture supernatant of each well was collected in a 2 mL tube. A new 0.5 mL of the culture medium was added to each well, spread over the whole well, and collected in the 2 mL tube. To each empty well was added 0.49 mL of fresh culture medium. The culture solution collected in the 2 mL tube was centrifuged at 1,000 rpm for 5 minutes, the supernatant was removed, and 1 mL of the fresh culture solution was added to suspend, and centrifuged again under the same conditions. After centrifugation, the supernatant was removed and 0.49 mL of culture medium in each well was added to the 2 mL tube, suspended and returned to each well. Then, 250 μL of the culture medium or 250 μL of the culture medium containing 40 μmol/L of the above GW9662 was added to the wells, and the wells were cultured at 37° C. in a 5% CO2 for 1 hour. After the incubation, 250 μL of the culture medium containing LPSp was added to the wells so that the final concentration of the LPSp was 100 ng/mL, and the wells were incubated at 37° C. in a 5% CO2 for 22 hours.
After culturing, the culture supernatants of the wells were collected in tubes, centrifuged, and the supernatants were collected in 1.5-mL tubes. The absorbance was measured using Human IL-6 ELISA MAX Deluxe (Biolegend Corporation), and the concentrations of Interleukin-6 (IL-6) were calculated.

human TLR4 = molecular target: T1, human TLR4 (Homo sapiens, UniProt O00206+Q9Y6Y9); test: IL-8 production in Human Embryonic Kidney cells transfected with human TLR4 gene (Example 3); type: cell-based; conditions: HEK cells with human TLR4 gene; final 0.1-10,000 ng/mL; 24 hours; ELISA; FIG. 3
T1 construct: host or cells: Human Embryonic Kidney cells
Procedure: The purified product obtained in Example 1 (the mixture of the compound represented by Formula (A1), the compound represented by Formula (B1), the compound represented by Formula (A2), and the compound represented by Formula (B2)) was dissolved in water for injection to a concentration of 2 mg/mL and stored at 4° C., and the solution was heated at 37° C. for 5 minutes and sonicated at 37° C. for 1 minute. 10 μL of the sonicated solution was added to 990 μL of the culture solution having the following composition to thoroughly mix, and a solution having a concentration of 20,000 ng/mL was prepared, which was serially diluted using the culture solution to obtain six test solutions having concentrations of 2,000 ng/mL, 200 ng/mL, 20 ng/mL, 2 ng/mL, and 0.2 ng/mL. Since the six test solutions are diluted twice when added to the cells, the final concentrations of the purified products are 10,000 ng/mL, 1,000 ng/mL, 100 ng/mL, 10 ng/mL, 1 ng/mL, and 0.1 ng/mL, respectively.
The culture medium was added to Human Embryonic Kidney cells (manufactured by InvivoGen) into which human TLR4 gene had been transfected, and solution were prepared in which the concentration of the cell was 4×10^5 cells/mL. The solution was seeded in 96-well flat-bottomed plates in 100 μL portions, i.e., 4×10^4 cells/100 μL/well. After seeding, the culture was cultured at 37° C. in a 5% CO2 for 24 hours, then the culture supernatant was removed, and 100 μL of the above-described culture medium was added to each well. Next, 100 μL of the test solution was added to each well. After adding the test solution, the culture was incubated at 37° C. in a 5% CO2 for 24 hours.
Culture supernatants from the wells were collected and the concentrations of Interleukin-8 (IL-8) were measured using Human IL-8 ELISA MAX (registered trademark) Standard (Biolegend).

PPARγ gene = PPARγ gene expression in THP-1 cells by CAGE method (Example 8-2); type: cell-based, human; conditions: 3 hours
Procedure: The same culture medium as in Example 8-1(2) was added to the THP-1 cells to prepare solutions in which the concentrations of the cells were 5×10^5 cells/mL. The expression level of the PPARγ gene in this solution was measured by the CAGE method and found to be 3.97 TPM (Tags Per Million). After the measurement, the cell solution was divided into the following four groups. That is, there are four groups: a group in which a solution of the purified product is added to the cell solution so as to have a final concentration of 1 μg/mL (Example 8-2A), a group in which a solution of the purified product is added to the cell solution so as to have a final concentration of 10 μg/mL (Example 8-2B), a group in which nothing is added to the cell solution (Comparative Example 8-2A), and a group in which a LPSp solution is added to the cell solution so as to have a final concentration of 100 ng/mL (Comparative Example 8-2B). After culturing the four groups for 3 hours, the expression level of the PPARγ gene was measured by the CAGE method. FIG. 27 is a graph showing the expression levels of the PPARγ genes. In FIG. 27, the horizontal axis represents the incubation time, and the vertical axis represents the expression amount (TPM) of the PPARγ gene. […] In contrast, in Comparative Example 8-2A, the expression level of the PPARγ gene decreased slightly from 3.97 TPM to 3.89 TPM during 3 hours, and in Comparative Example 8-2B, the expression level of the PPARγ gene increased from 3.97 TPM to 4.31 TPM during 3 hours, but the degree of the increase was not significant.

T1 sequence (O00206 24-839): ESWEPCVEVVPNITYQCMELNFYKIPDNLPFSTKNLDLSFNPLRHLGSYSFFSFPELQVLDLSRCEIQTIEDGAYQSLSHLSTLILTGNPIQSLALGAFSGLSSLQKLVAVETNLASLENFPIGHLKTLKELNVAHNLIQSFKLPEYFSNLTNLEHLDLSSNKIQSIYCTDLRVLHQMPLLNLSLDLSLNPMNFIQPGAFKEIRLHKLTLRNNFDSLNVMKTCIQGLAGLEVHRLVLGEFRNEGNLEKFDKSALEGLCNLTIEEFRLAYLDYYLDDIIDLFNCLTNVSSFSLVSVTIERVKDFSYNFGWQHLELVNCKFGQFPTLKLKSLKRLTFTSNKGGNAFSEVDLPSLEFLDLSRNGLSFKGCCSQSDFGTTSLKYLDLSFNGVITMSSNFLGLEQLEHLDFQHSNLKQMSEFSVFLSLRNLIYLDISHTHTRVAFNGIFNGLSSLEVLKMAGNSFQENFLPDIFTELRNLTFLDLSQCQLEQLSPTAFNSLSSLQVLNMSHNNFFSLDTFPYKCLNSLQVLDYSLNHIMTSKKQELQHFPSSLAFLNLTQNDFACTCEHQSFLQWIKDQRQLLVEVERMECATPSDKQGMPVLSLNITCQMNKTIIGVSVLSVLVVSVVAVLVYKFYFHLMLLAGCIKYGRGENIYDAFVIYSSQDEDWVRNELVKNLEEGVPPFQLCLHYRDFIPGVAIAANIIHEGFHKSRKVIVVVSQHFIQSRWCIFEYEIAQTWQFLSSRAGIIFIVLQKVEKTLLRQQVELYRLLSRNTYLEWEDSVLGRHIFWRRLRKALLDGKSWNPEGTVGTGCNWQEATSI
T1 sequence (Q9Y6Y9 17-160 limits assumed): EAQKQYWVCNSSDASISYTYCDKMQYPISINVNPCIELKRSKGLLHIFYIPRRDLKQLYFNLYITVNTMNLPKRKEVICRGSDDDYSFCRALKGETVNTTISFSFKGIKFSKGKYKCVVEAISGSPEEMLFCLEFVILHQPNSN

CCCCCC/C=C/CCCCCC(=O)OC(CCCCCCCCCCC)CC(=O)NC1C(OCC2OC(OP(=O)(O)O)C(NC(=O)CC(=O)CCCCCCCCCCC)C(OC(=O)CC(O)CCCCCCC)C2O)OC(COC2(C(=O)O)CC(OC3(C(=O)O)CC(OC4OC(C(=O)O)C(OC5OC(CO)C(O)C(O)C5O)C(O)C4O)C(O)C(C(O)CO)O3)C(OC3OC(COP(=O)(O)O)C(OC4OC(CO)C(O)C(O)C4O)C(O)C3O)C(C(O)CO)O2)C(OP(=O)(O)O)C1OC(=O)CC(O)CCCCCCC (stereo not drawn) [Formula (A1)]
Equivalent results were obtained: IL-6 concentration in culture supernatant (IL-6) | concentration of IL-8 in culture supernatant (human TLR4) | effect on expression of the PPARγ gene (in words) (PPARγ gene)

CCCCCC/C=C/CCCCCC(=O)OC(CCCCCCCCCCC)CC(=O)NC1C(OCC2OC(OP(=O)(O)O)C(NC(=O)CC(=O)CCCCCCCCCCC)C(OC(=O)CC(O)CCCCCCC)C2O)OC(COC2(C(=O)O)CC(OC3(C(=O)O)CC(O)C(OC4OC(C(=O)O)C(OC5OC(CO)C(O)C(O)C5O)C(O)C4O)C(C(O)CO)O3)C(OC3OC(CO)C(O)C(O)C3O)C(C(O)CO)O2)C(OP(=O)(O)O)C1OC(=O)CC(O)CCCCCCC (stereo not drawn) [Formula (B2)]
Equivalent results were obtained: IL-6 concentration in culture supernatant (IL-6) | concentration of IL-8 in culture supernatant (human TLR4) | effect on expression of the PPARγ gene (in words) (PPARγ gene)

CCCCCC/C=C/CCCCCC(=O)OC(CCCCCCCCCCC)CC(=O)NC1C(OCC2OC(OP(=O)(O)O)C(NC(=O)CC(=O)CCCCCCCCCCC)C(OC(=O)CC(O)CCCCCCC)C2O)OC(COC2(C(=O)O)CC(OC3(C(=O)O)CC(OC4OC(C(=O)O)C(OC5OC(CO)C(O)C(O)C5O)C(O)C4O)C(O)C(C(O)CO)O3)C(OC3OC(CO)C(O)C(O)C3O)C(C(O)CO)O2)C(OP(=O)(O)O)C1OC(=O)CC(O)CCCCCCC (stereo not drawn) [Formula (A2)]
Equivalent results were obtained: IL-6 concentration in culture supernatant (IL-6) | concentration of IL-8 in culture supernatant (human TLR4) | effect on expression of the PPARγ gene (in words) (PPARγ gene)

CCCCCC/C=C/CCCCCC(=O)OC(CCCCCCCCCCC)CC(=O)NC1C(OCC2OC(OP(=O)(O)O)C(NC(=O)CC(=O)CCCCCCCCCCC)C(OC(=O)CC(O)CCCCCCC)C2O)OC(COC2(C(=O)O)CC(OC3(C(=O)O)CC(O)C(OC4OC(C(=O)O)C(OC5OC(CO)C(O)C(O)C5O)C(O)C4O)C(C(O)CO)O3)C(OC3OC(COP(=O)(O)O)C(OC4OC(CO)C(O)C(O)C4O)C(O)C3O)C(C(O)CO)O2)C(OP(=O)(O)O)C1OC(=O)CC(O)CCCCCCC (stereo not drawn) [Formula (B1)]
Equivalent results were obtained: IL-6 concentration in culture supernatant (IL-6) | concentration of IL-8 in culture supernatant (human TLR4) | effect on expression of the PPARγ gene (in words) (PPARγ gene)

Source: patent publication US20190177440A1, “COMPOUND OR SALT THEREOF, ANTI-INFLAMMATORY AGENT, ANTI-CANCER AGENT AGAINST LUNG CANCER, METHOD OF PRODUCING COMPOUND OR SALTS THEREOF, METHOD OF TREATING INFLAMMATORY DISEASES AND METHOD OF TREATING LUNG CANCER” (TFK CO., LTD., priority 2016, published 2019)
